Calls of active or inactive are those of the source. No cut-off for these calls is given here.
Tests used:
[1] = target: T1, Mitogen-activated protein kinase 1 (Homo sapiens, UniProt P28482)
[2] = target: T1, Mitogen-activated protein kinase 1; remark: listed apart in the source
[3] = target: T1, Mitogen-activated protein kinase 1; remark: listed apart in the source
[4] = target: T1, Mitogen-activated protein kinase 1; remark: listed apart in the source
[5] = target: T1, Mitogen-activated protein kinase 1; remark: listed apart in the source
[6] = Volume of distribution at steady state in rat; assay type: ADME; conditions: in vivo, read-out: Vdss
[7] = target: Cyclin-dependent kinase 5 (Homo sapiens) (UniProt Q00535); test: Binding affinity to recombinant human GST-tagged inactive CDK5
[8] = target: Voltage-gated inwardly rectifying potassium channel KCNH2 (Homo sapiens, UniProt Q12809)
[9] = target: T1, Mitogen-activated protein kinase 1; test: Binding affinity to non-phosphorylated biotinylated ERK2 (unknown origin) by SPR analysis
[10] = target: T2, Cyclin-dependent kinase 5/CDK5 activator 1 (Homo sapiens, UniProt Q00535); test: Inhibition of recombinant full length human His-tagged CDK5/p35 expressed in baculovirus expression system
[11] = target: Serine/threonine-protein kinase B-raf (Homo sapiens) (UniProt P15056); test: Inhibition of recombinant full length GST-tagged human BRAF1 expressed in baculovirus expression system at 1 uM relative to control
[12] = target: Cyclin-dependent kinase 5/CDK5 activator 1 (Homo sapiens) (UniProt Q00535+Q15078); test: Inhibition of recombinant full length human GST/His-tagged CDK5/p25 expressed in baculovirus expression system at 1 uM relative to control
Calu-6 [13] = test: Antitumor activity against human Calu6 cells expressing KRAS Q61K mutant xenografted in athymic Nude-Foxn1nu mouse assessed as tumor regression at 50 mg/kg, po qd adminstered for 21 days and measured twice per week by caliper method relative to control; assay type: functional
[14] = Half life in po dosed dog; assay type: ADME, organism-based, Canis lupus familiaris; conditions: in vivo
[15] = target: Dual specificity mitogen-activated protein kinase kinase 2 (Homo sapiens) (UniProt P36507); test: Inhibition of recombinant full length his-tagged human MEK2 expressed in baculovirus expression system at 1 uM relative to control
[16] = target: Dual specificity mitogen-activated protein kinase kinase 1 (Homo sapiens) (UniProt Q02750); test: Inhibition of recombinant full length His-tagged human MEK1 expressed in baculovirus expression system at > 10 uM
A549 = test: Antitumor activity against human A549 cells harboring KRAS […] mutant xenografted in athymic Nude-Foxn1nu mouse assessed as tumor regression at 25 mg/kg, po bid adminstered for 21 days and measured twice per week in presence of selumetinib by caliper method relative to control; assay type: functional
[17] = Fraction unbound in rat plasma; assay type: ADME, cell-free
[18] = target: Mitogen-activated protein kinase 15 (Homo sapiens) (UniProt Q8TD08); test: Binding affinity to recombinant human N-terminal 4xFLAG-tagged/C-terminal His8-fused ERK7 N-terminal domain (M1 to R354 residues) expressed in Sf9 insect cells
[19] = target: NUAK family SNF1-like kinase 1 (Homo sapiens, UniProt O60285); test: Inhibition of recombinant full length human His-tagged ARK5 expressed in baculovirus expression system
[20] = target: NUAK family SNF1-like kinase 1 (Homo sapiens) (UniProt O60285); test: Inhibition of recombinant full length human His-tagged ARK5 expressed in baculovirus expression system at 1 uM relative to control
[21] = target: T3, Mitogen-activated protein kinase; ERK1/ERK2 (Homo sapiens, UniProt P27361+P28482); test: Inhibition of ERK1/2 in human A375 cells assessed as inhibition of ERK phosphorylation after 2 hrs; assay type: cell-based
[22] = target: T4, CDK2/Cyclin A1 (Homo sapiens) (UniProt P24941+P78396); test: Binding affinity to recombinant human full length N-terminal GST-tagged CDK2/Cyclin A1 expressed in baculovirus infected Sf9 cells at 1 uM relative to control
[23] = target: T1, Mitogen-activated protein kinase 1; remark: listed apart in the source
[24] = target: Cyclin-dependent kinase 2/cyclin E1 (Homo sapiens, UniProt P24941); test: Inhibition of human full length C-terminal His6-tagged Cdk2/human full length N-terminal GST-tagged Cyclin E expressed in baculovirus infected Sf21 insect cells after 1 hr by electromobility shift assay
A-375 = test: Antiproliferative activity at human A375 cells expressing BRAF V600E mutant assessed as growth inhibition; assay type: functional
[25] = target: T3, Mitogen-activated protein kinase; ERK1/ERK2; test: Inhibition of ERK1/2 in human A375 cells assessed as inhibition of RSK phosphorylation after 2 hrs; assay type: cell-based
[26] = Half life in po dosed rat; assay type: ADME, organism-based; conditions: in vivo
[27] = target: Dual specificity mitogen-activated protein kinase kinase 1 (Homo sapiens) (UniProt Q02750); test: Inhibition of recombinant full length His-tagged human MEK1 expressed in baculovirus expression system at 1 uM by GST-tagged full length human inactive ERK2 coupled cascade assay relative to control
[28] = target: CDK2/Cyclin O (Homo sapiens) (UniProt P24941+P22674); test: Inhibition of recombinant human full length N-terminal GST-tagged CDK2/Cyclin O expressed in baculovirus infected Sf9 cells at 1 uM relative to control
Mus musculus [29] = test: Reduction in phosphorylated RSK level in athymic Nude-Foxn1nu mouse xenografted with human Calu6 cells expressing KRAS Q61K mutant at 25 mg/kg, po qd adminstered for 21 days and measured after 6 hrs post dose by Western blot analysis relative to control; assay type: functional; conditions: Calu-6, po
[30] = tested on: RAF proto-oncogene serine/threonine-protein kinase (Homo sapiens), P04049 [Y340D,Y341D]; test: Inhibition of recombinant human GST-tagged c-RAF1 Y340D/Y341D mutant catalytic domain expressed in baculovirus expression system at 1 uM relative to control
[31] = Oral bioavailability in rat; assay type: ADME, organism-based; conditions: in vivo
[32] = target: Mitogen-activated protein kinase kinase kinase 8 (Homo sapiens) (UniProt P41279); test: Inhibition of recombinant GST-tagged human COT catalytic domain expressed in baculovirus expression system at 1 uM by GST-tagged full length human inactive ERK2 expressed in baculovirus expression system coupled cascade assay relative to control
[33] = target: Dual specificity mitogen-activated protein kinase kinase 2 (Homo sapiens) (UniProt P36507); test: Inhibition of recombinant full length his-tagged human MEK2 expressed in baculovirus expression system at 1 uM by GST-tagged full length human inactive ERK2 expressed in baculovirus expression system coupled cascade assay relative to control
[34] = Oral bioavailability in dog; assay type: ADME, organism-based, Canis lupus familiaris; conditions: in vivo
[35] = Volume of distribution at steady state in dog; assay type: ADME, Canis lupus familiaris; conditions: in vivo, read-out: Vdss
[36] = target: Dual specificity mitogen-activated protein kinase kinase 1 (Homo sapiens) (UniProt Q02750); test: Inhibition of recombinant full length His-tagged human MEK1 expressed in baculovirus expression system at 1 uM relative to control
[37] = target: Cyclin-dependent kinase 2/cyclin E1 (Homo sapiens) (UniProt P24864+P24941); test: Inhibition of human full length C-terminal His6-tagged Cdk2/human full length N-terminal GST-tagged Cyclin E expressed in baculovirus infected Sf21 insect cells at 1 uM after 1 hr by electromobility shift assay relative to control
Mus musculus [38] = test: Reduction in phosphorylated RSK level in athymic Nude-Foxn1nu mouse xenografted with human Calu6 cells expressing KRAS Q61K mutant at 25 mg/kg, po qd adminstered for 21 days and measured after 0.5 hrs post dose by Western blot analysis relative to control; assay type: functional; conditions: Calu-6, po
[39] = Fraction unbound in mouse plasma; assay type: ADME, cell-free
[40] = target: T1, Mitogen-activated protein kinase 1; test: Inhibition of MEK U911-activated ERK2 (unknown origin) using ERKtide as substrate preincubated for 20 mins followed by substrate addition in presence of 1 mM ATP after 10 mins by rapidfire mass spectrometry analysis
[41] = target: T4, CDK2/Cyclin A1 (Homo sapiens); test: Inhibition of recombinant human full length His-tagged CDK2/Cyclin A expressed in baculovirus expression system at 1 uM relative to control
[42] = target: T1, Mitogen-activated protein kinase 1; test: Binding affinity to MEK-activated phosphorylated biotinylated ERK2 (unknown origin) by SPR analysis
[43] = target: Mitogen-activated protein kinase 3 (Homo sapiens) (UniProt P27361); test: Inhibition of GST-tagged recombinant human full length ERK1 expressed in Escherichia coli at 1 uM relative to control
Calu-6 [44] = test: Antiproliferative activity against human Calu6 cells expressing KRAS Q61K mutant assessed as growth inhibition; assay type: functional
[45] = Fraction unbound in dog plasma; assay type: ADME, cell-free, Canis lupus familiaris
[46] = target: Mitogen-activated protein kinase 15 (Homo sapiens) (UniProt Q8TD08); test: Inhibition of recombinant human N-terminal 4xFLAG-tagged/C-terminal His8-fused ERK7 N-terminal domain (M1 to R354 residues) expressed in Sf9 insect cells at 1 uM relative to control
[47] = tested on: RAF proto-oncogene serine/threonine-protein kinase (Homo sapiens), P04049 [Y340D,Y341D]; test: Inhibition of recombinant human GST-tagged c-RAF1 Y340D/Y341D mutant catalytic domain expressed in baculovirus expression system at 1 uM by GST-tagged full length human inactive ERK2 expressed in baculovirus expression system coupled cascade assay relative to control
Calu-6 [48] = test: Antitumor activity against human Calu6 cells expressing KRAS Q61K mutant xenografted in athymic Nude-Foxn1nu mouse assessed as tumor growth inhibition at 15 mg/kg, po qd adminstered for 21 days and measured twice per week by caliper method relative to control; assay type: functional; conditions: Calu-6, po, 504 h, read-out: TGI
[49] = target: T2, Cyclin-dependent kinase 5/CDK5 activator 1; test: Inhibition of recombinant full length human GST/His-tagged CDK5/p25 expressed in baculovirus expression system
[50] = target: T1, Mitogen-activated protein kinase 1; test: Inhibition of MEK U911-activated ERK2 (unknown origin) using ERKtide as substrate preincubated for 20 mins followed by substrate addition in presence of ATP at Km concentration after 20 mins by rapidfire mass spectrometry analysis
[51] = Fraction unbound in human plasma; assay type: ADME, cell-free

Chain of Dual specificity mitogen-activated protein kinase kinase 1 (Homo sapiens) (Q02750 whole entry): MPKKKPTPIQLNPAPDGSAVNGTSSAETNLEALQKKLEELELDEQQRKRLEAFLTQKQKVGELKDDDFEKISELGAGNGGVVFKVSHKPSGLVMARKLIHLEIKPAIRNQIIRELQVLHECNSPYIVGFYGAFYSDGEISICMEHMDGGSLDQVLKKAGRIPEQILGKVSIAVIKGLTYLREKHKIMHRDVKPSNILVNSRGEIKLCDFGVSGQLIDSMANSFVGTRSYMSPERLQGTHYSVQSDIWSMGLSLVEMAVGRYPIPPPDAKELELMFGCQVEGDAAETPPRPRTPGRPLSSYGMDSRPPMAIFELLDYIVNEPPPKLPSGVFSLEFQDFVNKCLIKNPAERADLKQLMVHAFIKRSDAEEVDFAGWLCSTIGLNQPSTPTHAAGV
T1 sequence (P28482 whole entry): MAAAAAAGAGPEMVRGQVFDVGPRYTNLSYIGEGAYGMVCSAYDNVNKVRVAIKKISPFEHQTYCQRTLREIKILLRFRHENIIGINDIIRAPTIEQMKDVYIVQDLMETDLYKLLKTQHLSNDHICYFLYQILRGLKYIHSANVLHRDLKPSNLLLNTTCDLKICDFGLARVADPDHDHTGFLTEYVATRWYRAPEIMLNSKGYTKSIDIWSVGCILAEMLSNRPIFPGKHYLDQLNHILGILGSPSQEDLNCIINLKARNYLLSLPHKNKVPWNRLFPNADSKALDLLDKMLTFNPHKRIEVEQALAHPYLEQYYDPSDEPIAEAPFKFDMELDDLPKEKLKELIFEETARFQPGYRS
Chain of RAF proto-oncogene serine/threonine-protein kinase (Homo sapiens), P04049 [Y340D,Y341D] (P04049 whole entry Y340D/Y341D, the tested form may be a part): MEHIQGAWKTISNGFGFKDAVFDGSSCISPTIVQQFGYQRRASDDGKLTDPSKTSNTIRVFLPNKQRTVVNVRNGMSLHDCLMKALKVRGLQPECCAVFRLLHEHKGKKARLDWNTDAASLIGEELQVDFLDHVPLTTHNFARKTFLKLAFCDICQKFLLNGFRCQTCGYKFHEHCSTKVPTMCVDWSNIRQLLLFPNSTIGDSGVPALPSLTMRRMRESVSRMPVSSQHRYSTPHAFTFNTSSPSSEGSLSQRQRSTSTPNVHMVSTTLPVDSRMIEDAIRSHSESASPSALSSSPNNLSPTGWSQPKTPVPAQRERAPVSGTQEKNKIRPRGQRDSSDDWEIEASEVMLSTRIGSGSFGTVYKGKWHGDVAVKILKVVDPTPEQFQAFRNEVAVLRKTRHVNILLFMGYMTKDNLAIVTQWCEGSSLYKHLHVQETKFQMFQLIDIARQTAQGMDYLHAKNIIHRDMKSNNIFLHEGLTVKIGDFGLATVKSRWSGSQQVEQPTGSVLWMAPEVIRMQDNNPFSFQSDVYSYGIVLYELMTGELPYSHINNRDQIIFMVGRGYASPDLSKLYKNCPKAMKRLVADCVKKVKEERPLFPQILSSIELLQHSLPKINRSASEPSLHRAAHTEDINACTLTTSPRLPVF
Chain of Mitogen-activated protein kinase 15 (Homo sapiens) (Q8TD08 whole entry, the tested form may be a part): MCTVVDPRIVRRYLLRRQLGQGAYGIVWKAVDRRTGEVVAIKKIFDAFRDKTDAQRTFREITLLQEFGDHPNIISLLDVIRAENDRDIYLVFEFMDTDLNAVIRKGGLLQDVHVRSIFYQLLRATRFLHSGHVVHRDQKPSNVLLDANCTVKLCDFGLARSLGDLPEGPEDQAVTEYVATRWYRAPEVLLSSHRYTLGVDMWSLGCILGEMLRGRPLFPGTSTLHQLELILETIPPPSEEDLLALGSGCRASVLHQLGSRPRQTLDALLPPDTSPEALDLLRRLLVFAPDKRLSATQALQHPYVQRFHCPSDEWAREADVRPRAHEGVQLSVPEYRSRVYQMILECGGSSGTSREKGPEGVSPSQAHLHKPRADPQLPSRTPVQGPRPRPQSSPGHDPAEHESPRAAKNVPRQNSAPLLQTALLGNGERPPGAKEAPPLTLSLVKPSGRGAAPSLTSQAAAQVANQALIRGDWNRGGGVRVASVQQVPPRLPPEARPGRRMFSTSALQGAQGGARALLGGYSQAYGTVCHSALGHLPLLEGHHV
Chain of Dual specificity mitogen-activated protein kinase kinase 2 (Homo sapiens) (P36507 whole entry): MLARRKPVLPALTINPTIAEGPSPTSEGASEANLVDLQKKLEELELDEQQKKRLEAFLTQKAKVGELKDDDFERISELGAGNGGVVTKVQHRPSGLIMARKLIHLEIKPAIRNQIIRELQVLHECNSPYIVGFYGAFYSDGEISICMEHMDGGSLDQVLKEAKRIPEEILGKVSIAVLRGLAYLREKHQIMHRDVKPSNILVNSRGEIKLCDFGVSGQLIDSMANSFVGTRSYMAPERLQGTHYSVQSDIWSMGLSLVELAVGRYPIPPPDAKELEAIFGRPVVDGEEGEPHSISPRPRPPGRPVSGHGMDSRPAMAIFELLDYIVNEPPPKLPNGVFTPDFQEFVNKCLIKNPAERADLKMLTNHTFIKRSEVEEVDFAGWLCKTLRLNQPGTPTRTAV
T2 sequence (Q00535 whole entry): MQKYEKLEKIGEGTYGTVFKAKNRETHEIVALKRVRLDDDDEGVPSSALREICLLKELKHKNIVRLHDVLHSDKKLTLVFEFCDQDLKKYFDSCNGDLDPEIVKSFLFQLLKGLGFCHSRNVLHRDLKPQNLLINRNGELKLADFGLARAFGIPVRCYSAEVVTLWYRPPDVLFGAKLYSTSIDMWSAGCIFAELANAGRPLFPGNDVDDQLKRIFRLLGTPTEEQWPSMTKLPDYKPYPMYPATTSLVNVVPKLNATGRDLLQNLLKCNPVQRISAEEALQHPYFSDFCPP
T2 sequence (Q15078 whole entry, further chain): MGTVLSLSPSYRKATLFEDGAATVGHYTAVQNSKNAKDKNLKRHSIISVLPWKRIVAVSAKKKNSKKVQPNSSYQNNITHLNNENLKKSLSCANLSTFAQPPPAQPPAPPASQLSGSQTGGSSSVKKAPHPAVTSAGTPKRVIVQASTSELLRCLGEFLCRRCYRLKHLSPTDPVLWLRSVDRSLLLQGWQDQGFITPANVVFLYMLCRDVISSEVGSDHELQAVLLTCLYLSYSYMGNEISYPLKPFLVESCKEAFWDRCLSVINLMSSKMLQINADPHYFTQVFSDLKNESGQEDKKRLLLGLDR
Chain of Mitogen-activated protein kinase kinase kinase 8 (Homo sapiens) (P41279 whole entry, the tested form may be a part): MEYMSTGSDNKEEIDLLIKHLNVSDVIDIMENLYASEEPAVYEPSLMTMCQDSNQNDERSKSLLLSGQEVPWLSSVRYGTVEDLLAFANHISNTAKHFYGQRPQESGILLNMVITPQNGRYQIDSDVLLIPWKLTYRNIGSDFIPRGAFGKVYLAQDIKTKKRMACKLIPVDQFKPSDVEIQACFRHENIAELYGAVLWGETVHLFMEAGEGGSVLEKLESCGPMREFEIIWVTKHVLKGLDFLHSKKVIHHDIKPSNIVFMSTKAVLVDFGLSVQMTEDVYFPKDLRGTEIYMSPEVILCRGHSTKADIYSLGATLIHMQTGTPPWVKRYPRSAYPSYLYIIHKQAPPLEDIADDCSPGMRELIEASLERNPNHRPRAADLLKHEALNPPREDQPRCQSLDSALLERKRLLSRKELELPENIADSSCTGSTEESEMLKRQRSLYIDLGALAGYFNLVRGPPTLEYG
Chain of NUAK family SNF1-like kinase 1 (O60285 whole entry): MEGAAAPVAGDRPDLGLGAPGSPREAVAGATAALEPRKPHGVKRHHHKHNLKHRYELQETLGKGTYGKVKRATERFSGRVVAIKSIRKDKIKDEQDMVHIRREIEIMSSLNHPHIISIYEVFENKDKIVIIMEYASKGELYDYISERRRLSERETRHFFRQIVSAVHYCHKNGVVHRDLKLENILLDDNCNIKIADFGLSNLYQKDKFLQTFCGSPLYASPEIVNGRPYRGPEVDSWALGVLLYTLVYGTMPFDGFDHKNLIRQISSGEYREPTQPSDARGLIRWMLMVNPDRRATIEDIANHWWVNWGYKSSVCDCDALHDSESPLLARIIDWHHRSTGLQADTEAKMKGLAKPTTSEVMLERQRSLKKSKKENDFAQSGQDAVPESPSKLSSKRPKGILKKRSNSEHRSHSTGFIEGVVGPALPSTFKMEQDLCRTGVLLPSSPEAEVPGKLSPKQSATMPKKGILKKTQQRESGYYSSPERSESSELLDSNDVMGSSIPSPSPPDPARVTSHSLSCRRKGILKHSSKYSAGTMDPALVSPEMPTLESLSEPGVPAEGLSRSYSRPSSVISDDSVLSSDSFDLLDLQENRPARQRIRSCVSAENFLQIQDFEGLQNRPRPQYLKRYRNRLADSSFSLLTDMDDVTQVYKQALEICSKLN
Chain of NUAK family SNF1-like kinase 1 (Homo sapiens) (O60285 whole entry): as above
Chain of Mitogen-activated protein kinase 3 (Homo sapiens) (P27361 whole entry): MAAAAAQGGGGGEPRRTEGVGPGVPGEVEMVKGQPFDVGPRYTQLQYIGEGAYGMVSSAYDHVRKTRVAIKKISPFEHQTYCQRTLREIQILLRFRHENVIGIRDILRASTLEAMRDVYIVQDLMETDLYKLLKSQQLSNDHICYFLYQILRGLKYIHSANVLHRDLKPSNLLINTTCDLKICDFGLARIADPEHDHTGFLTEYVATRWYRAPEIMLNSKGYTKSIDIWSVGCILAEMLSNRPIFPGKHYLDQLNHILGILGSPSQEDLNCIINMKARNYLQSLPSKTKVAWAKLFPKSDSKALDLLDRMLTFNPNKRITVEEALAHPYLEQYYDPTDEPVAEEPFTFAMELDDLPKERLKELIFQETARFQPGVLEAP
Chain of Cyclin-dependent kinase 5 (Homo sapiens) (Q00535 whole entry, looked up): as the sequence (Q00535 whole entry) above

Q: With `Cn1nccc1Nc1nccc(-c2ccn([C@H](CO)c3ccc(Cl)c(F)c3)c(=O)c2)n1` as the compound, how does the T1/2 [1] read?
A: 0.0133 h

Q: And the T1/2 [2]?
A: 0.02 h

Q: And the Kdiss [3]?
A: 9.9 ×10⁻³ /s

Q: What about the Ka [4] of the same compound?
A: 9.8 ×10⁻⁶ /M/s

Q: For `O=C(Nc1ccc2[nH]nc(-c3ccncc3)c2c1)[C@@H]1CCN(CC(=O)N2CCN(c3ccc(-c4ncccn4)cc3)CC2)C1`, which T1/2 [1] is on record?
A: 2.12 h

Q: What about the Ka [5] of the same compound?
A: 9.4 ×10⁻⁵ /M/s

Q: And the T1/2 [2]?
A: 4.85 h

Q: What about the Kdiss [3] of the same compound?
A: 4.4 ×10⁻⁵ /s

Q: What about the Ka [4] of the same compound?
A: 1.3 ×10⁻⁶ /M/s

Q: What does the source list for `COC[C@H]1Cn2cc(-c3nc(Nc4ccnn4C)ncc3C)nc2C(=O)N1Cc1ccc(F)c(F)c1` [TIZATERKIB]?
A: Vd [6]: 1.5 L/kg; Activity [7]: 1.9 µM; IC50 [8]: 11000 nM; T1/2 [1]: 4.62 h; Ka [5]: 6.5 ×10⁻⁵ /M/s; Kd [9]: 0.1 nM; IC50 [10]: 300 nM; inhibition [11]: 5.8%; inhibition [12]: 81%; Activity (Calu-6 [13]): 49%; half-life [14]: 5 h; inhibition [15]: -2.2%; inhibition [16]: inactive; Activity (A549): 28%; fraction unbound [17]: 0.21; Activity [18]: 0.03 µM; IC50 [19]: 400 nM; inhibition [20]: 80%; IC50 [21]: 1.7 nM; Activity [22]: 91%; Kdiss [23]: 4.5 ×10⁻⁵ /s; IC50 [24]: 1000 nM; GI50 (A-375): 60 nM; IC50 [25]: 5.7 nM; half-life [26]: 2.3 h; inhibition [27]: 104%; T1/2 [2]: 3.23 h; inhibition [28]: 95%; inhibition in vivo at 25 mg/kg (Mus musculus [29]): 100%; inhibition [30]: -3.5%; bioavailability [31]: 30%; inhibition [32]: 103%; inhibition [33]: 101%; bioavailability [34]: 100%; Vd [35]: 1.2 L/kg; inhibition [36]: -2.5%; inhibition [37]: 89%; inhibition in vivo at 25 mg/kg (Mus musculus [38]): 100%; Kdiss [3]: 6 ×10⁻⁵ /s; fraction unbound [39]: 0.12; IC50 [40]: 0.66 nM; Ka [4]: 8.9 ×10⁻⁵ /M/s; inhibition [41]: 87%; Kd [42]: 0.0501 nM; inhibition [43]: 105%; GI50 (Calu-6 [44]): 200 nM; fraction unbound [45]: 0.44; inhibition [46]: 99%; inhibition [47]: 101%; inhibition in vivo at 15 mg/kg (Calu-6 [48]): 93%; IC50 [49]: 300 nM; IC50 [50]: < 0.3 nM; fraction unbound [51]: 0.06 to 0.27

From ChEMBL document CHEMBL4321846, “Discovery of a Potent and Selective Oral Inhibitor of ERK1/2 (AZD0364) That Is Efficacious in Both Monotherapy and Combination Therapy in Models of Nonsmall Cell Lung Cancer (NSCLC)” (J Med Chem, 2019)
